From PubChem BioAssay AID2060897 (Molecular Pharmacology Branch, DTP, NCI, 2025)
Values belong to the compound of their own block, whether it stands above or below them.

System: 966289-007-R4-J1-PDC complex spheroid viability
Assay: Anticancer human tumor 966289-007-R4-J1-PDC patient-derived pancreatic adenocarcinoma cell line growth inhibition [RAS]
Conditions: for IC50: curve of first compound; for viability, T/C: stronger effect = lower value
Outline: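 Multi-cell-type spheroids: tumor cells plus HUVEC endothelial cells and mesenchymal stem cells. RAS-pathway inhibitors were combined with targeted agents, each dosed in half-log steps down from clinical Cmax, or from 10 microM when Cmax was unknown.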

[1] = second compound 0.000949 µM, first compound 0.0316 µM
[2] = second compound 0.000949 µM, first compound 0.1 µM
[3] = second compound 0.000949 µM, first compound 0.316 µM
[4] = second compound 0.000949 µM, first compound 1 µM
[5] = second compound 0.000949 µM, first compound 3.16 µM
[6] = second compound 0.000949 µM, first compound 10 µM
[7] = second compound 0.003 µM, first compound 0.0316 µM
[8] = second compound 0.003 µM, first compound 0.1 µM
[9] = second compound 0.003 µM, first compound 0.316 µM
[10] = second compound 0.003 µM, first compound 1 µM
[11] = second compound 0.003 µM, first compound 3.16 µM
[12] = second compound 0.003 µM, first compound 10 µM
[13] = second compound 0.00949 µM, first compound 0.0316 µM
[14] = second compound 0.00949 µM, first compound 0.1 µM
[15] = second compound 0.00949 µM, first compound 0.316 µM
[16] = second compound 0.00949 µM, first compound 1 µM
[17] = second compound 0.00949 µM, first compound 3.16 µM
[18] = second compound 0.00949 µM, first compound 10 µM
[19] = second compound 0.03 µM, first compound 0.0316 µM
[20] = second compound 0.03 µM, first compound 0.1 µM
[21] = second compound 0.03 µM, first compound 0.316 µM
[22] = second compound 0.03 µM, first compound 1 µM
[23] = second compound 0.03 µM, first compound 3.16 µM
[24] = second compound 0.03 µM, first compound 10 µM
[25] = second compound 0.0949 µM, first compound 0.0316 µM
[26] = second compound 0.0949 µM, first compound 0.1 µM
[27] = second compound 0.0949 µM, first compound 0.316 µM
[28] = second compound 0.0949 µM, first compound 1 µM
[29] = second compound 0.0949 µM, first compound 3.16 µM
[30] = second compound 0.0949 µM, first compound 10 µM
[31] = second compound 0.3 µM, first compound 0.0316 µM
[32] = second compound 0.3 µM, first compound 0.1 µM
[33] = second compound 0.3 µM, first compound 0.316 µM
[34] = second compound 0.3 µM, first compound 1 µM
[35] = second compound 0.3 µM, first compound 3.16 µM
[36] = second compound 0.3 µM, first compound 10 µM
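Also: spheroids exposed to agents for one week before readout.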
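For viability, T/C in this document: percent viability relative to DMSO vehicle control wells as 100%.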

IC50 (second compound 0.000949 µM): > 10 µM
IC50 (second compound 0.003 µM): > 10 µM
IC50 (second compound 0.00949 µM): > 10 µM
IC50 (second compound 0.03 µM): > 10 µM
IC50 (second compound 0.0949 µM): > 10 µM
IC50 (second compound 0.3 µM): > 10 µM
Compound: Cc1nc(N2CCC3(CC2)COC(C)C3N)c(CO)nc1Sc1ccnc(N)c1Cl (stereo unspecified) + CCn1c(-c2cccnc2C(C)OC)c2c3cc(ccc31)N1CCOC(CC(NC(=O)C(C(C)C)N(C)C(=O)C3(F)CCN(C(=O)C#CC(C)(C)N(C)C)CC3)C(=O)N3CCCC(N3)C(=O)OCC(C)(C)C2)C1
viability, T/C [1]: 123%
viability, T/C [2]: 90.2%
viability, T/C [3]: 119%
viability, T/C [4]: 70.1%
viability, T/C [5]: 67.3%
viability, T/C [6]: 84.8%
viability, T/C [7]: 89.2%
viability, T/C [8]: 89.6%
viability, T/C [9]: 84.7%
viability, T/C [10]: 80.3%
viability, T/C [11]: 86.4%
viability, T/C [12]: 88.9%
viability, T/C [13]: 80.4%
viability, T/C [14]: 83.1%
viability, T/C [15]: 87%
viability, T/C [16]: 90.5%
viability, T/C [17]: 84%
viability, T/C [18]: 82.2%
viability, T/C [19]: 92.4%
viability, T/C [20]: 84.7%
viability, T/C [21]: 89.1%
viability, T/C [22]: 82.6%
viability, T/C [23]: 74.7%
viability, T/C [24]: 97.3%
viability, T/C [25]: 68.9%
viability, T/C [26]: 101%
viability, T/C [27]: 95.9%
viability, T/C [28]: 90.3%
viability, T/C [29]: 106%
viability, T/C [30]: 76.1%
viability, T/C [31]: 95.7%
viability, T/C [32]: 89.2%
viability, T/C [33]: 93.4%
viability, T/C [34]: 144%
viability, T/C [35]: 122%
viability, T/C [36]: 114%

IC50 (second compound 0.000949 µM): 2.76 µM
IC50 (second compound 0.003 µM): 4.85 µM
IC50 (second compound 0.00949 µM): 5.11 µM
IC50 (second compound 0.03 µM): 6.16 µM
IC50 (second compound 0.0949 µM): 6.64 µM
IC50 (second compound 0.3 µM): 5.35 µM
Compound: CC(C)NCC(C(=O)N1CCN(c2ncnc3c2C(C)CC3O)CC1)c1ccc(Cl)cc1 (stereo unspecified) + CCn1c(-c2cccnc2C(C)OC)c2c3cc(ccc31)N1CCOC(CC(NC(=O)C(C(C)C)N(C)C(=O)C3(F)CCN(C(=O)C#CC(C)(C)N(C)C)CC3)C(=O)N3CCCC(N3)C(=O)OCC(C)(C)C2)C1
viability, T/C [1]: 99.4%
viability, T/C [2]: 94.4%
viability, T/C [3]: 117%
viability, T/C [4]: 85.7%
viability, T/C [5]: 46.3%
viability, T/C [6]: 28.5%
viability, T/C [7]: 99.2%
viability, T/C [8]: 82.3%
viability, T/C [9]: 98.9%
viability, T/C [10]: 94.6%
viability, T/C [11]: 62.2%
viability, T/C [12]: 29.4%
viability, T/C [13]: 70.3%
viability, T/C [14]: 89.2%
viability, T/C [15]: 97.2%
viability, T/C [16]: 114%
viability, T/C [17]: 62%
viability, T/C [18]: 33.2%
viability, T/C [19]: 57.3%
viability, T/C [20]: 72.6%
viability, T/C [21]: 103%
viability, T/C [22]: 92.4%
viability, T/C [23]: 62.3%
viability, T/C [24]: 41.1%
viability, T/C [25]: 63.9%
viability, T/C [26]: 94.5%
viability, T/C [27]: 126%
viability, T/C [28]: 90.8%
viability, T/C [29]: 75.6%
viability, T/C [30]: 35.9%
viability, T/C [31]: 92.5%
viability, T/C [32]: 97%
viability, T/C [33]: 107%
viability, T/C [34]: 99.9%
viability, T/C [35]: 58%
viability, T/C [36]: 40.4%

IC50 (second compound 0.000949 µM): 0.0248 µM
IC50 (second compound 0.003 µM): 0.0298 µM
IC50 (second compound 0.00949 µM): 0.0286 µM
IC50 (second compound 0.03 µM): 0.0317 µM
IC50 (second compound 0.0949 µM): 0.0298 µM
IC50 (second compound 0.3 µM): 0.0246 µM
Compound: CC(C)n1nc(-c2ccc3oc(N)nc3c2)c2c(N)ncnc21 + CCn1c(-c2cccnc2C(C)OC)c2c3cc(ccc31)N1CCOC(CC(NC(=O)C(C(C)C)N(C)C(=O)C3(F)CCN(C(=O)C#CC(C)(C)N(C)C)CC3)C(=O)N3CCCC(N3)C(=O)OCC(C)(C)C2)C1
viability, T/C (second compound 0.000949 µM, first compound 0.000316 µM): 101%
viability, T/C (second compound 0.000949 µM, first compound 0.001 µM): 88.1%
viability, T/C (second compound 0.000949 µM, first compound 0.00316 µM): 133%
viability, T/C (second compound 0.000949 µM, first compound 0.01 µM): 73.4%
viability, T/C [1]: 45.9%
viability, T/C [2]: 14.3%
viability, T/C (second compound 0.003 µM, first compound 0.000316 µM): 82.1%
viability, T/C (second compound 0.003 µM, first compound 0.001 µM): 102%
viability, T/C (second compound 0.003 µM, first compound 0.00316 µM): 116%
viability, T/C (second compound 0.003 µM, first compound 0.01 µM): 75.9%
viability, T/C [7]: 50.8%
viability, T/C [8]: 15.4%
viability, T/C (second compound 0.00949 µM, first compound 0.000316 µM): 67.1%
viability, T/C (second compound 0.00949 µM, first compound 0.001 µM): 111%
viability, T/C (second compound 0.00949 µM, first compound 0.00316 µM): 95.8%
viability, T/C (second compound 0.00949 µM, first compound 0.01 µM): 90.2%
viability, T/C [13]: 46.1%
viability, T/C [14]: 20.3%
viability, T/C (second compound 0.03 µM, first compound 0.000316 µM): 56.9%
viability, T/C (second compound 0.03 µM, first compound 0.001 µM): 96.6%
viability, T/C (second compound 0.03 µM, first compound 0.00316 µM): 111%
viability, T/C (second compound 0.03 µM, first compound 0.01 µM): 91.8%
viability, T/C [19]: 50.1%
viability, T/C [20]: 15%
viability, T/C (second compound 0.0949 µM, first compound 0.000316 µM): 58.4%
viability, T/C (second compound 0.0949 µM, first compound 0.001 µM): 96%
viability, T/C (second compound 0.0949 µM, first compound 0.00316 µM): 106%
viability, T/C (second compound 0.0949 µM, first compound 0.01 µM): 81.3%
viability, T/C [25]: 48.4%
viability, T/C [26]: 18.2%
viability, T/C (second compound 0.3 µM, first compound 0.000316 µM): 115%
viability, T/C (second compound 0.3 µM, first compound 0.001 µM): 96.7%
viability, T/C (second compound 0.3 µM, first compound 0.00316 µM): 84%
viability, T/C (second compound 0.3 µM, first compound 0.01 µM): 89.7%
viability, T/C [31]: 38.6%
viability, T/C [32]: 16.4%
